Results taken from US20200397764A1, “VAP-1 INHIBITORS FOR TREATING PAIN” (BENEVOLENTAI CAMBRIDGE LIMITED, priority 2015, published 2020).

How the values were obtained:
[1] = tested on: adjuvant-induced arthritis; experiment: Adjuvant-induced arthritis model, Randall Selitto assay (mechanical hyperalgesia); format: in vivo, rat; conditions: Lewis rats, dosed day 0 to day 28: LJP1207 30 mg/kg po qd, MTX 0.25 mg/kg ip 3 times per week; assessed day 7, 14, 18, 21, 25, 28; FIG. 2
Source text: Rats injected into the hindpaw with a mixture of Mycobacterium butirricum emulsified in light mineral oil develop a severe polyarthritis which shares some features in common with human rheumatoid arthritis (RA), such as swelling of the extremities, cartilage degradation, loss of joint function and lymphocyte infiltration into diseased joints. This model was originally described more than 60 years ago (Pearson et al., Arthritis and Rheumatology. 1959. 2(5), 440-459) and is still the most widely used assay to identify chemical agents having a potential therapeutic efficacy in RA. […] Furthermore, this is a well-established model for inflammatory pain, especially longer-term (i.e. chronic) inflammatory pain.
Male Lewis rats (220-230 g) were housed in propylene cages with food and water ad libitum. The light cycle was automatically controlled and the room temperature thermostatically regulated to 21±1° C. Prior to the start of the experiment animals were housed in these conditions for 6-8 days.
Rats were anaesthetized before induction of CFA and then were treated orally starting from day 0 to day 28 with LJP1207 (30 mg/kg po qd) or methotrexate (MTX, 0.25 mg/kg ip 3 times per week). Control rats received the vehicle e.g. PBS starting from day 0. […] The development of arthritis was assessed at day 7, 14, 18, 21, 25 and 28. […]

[2] = target: T1, human VAP-1 (SSAO) (Homo sapiens, UniProt Q16853); experiment: VAP-1 Inhibition Assay (benzylamine substrate, HRP-coupled hydrogen peroxide or 14C benzaldehyde detection); format: biochemical; conditions: purified recombinant human VAP-1 (SSAO), room temperature
T1 construct: made in house
T1 sequence (Q16853 29-763 limits assumed): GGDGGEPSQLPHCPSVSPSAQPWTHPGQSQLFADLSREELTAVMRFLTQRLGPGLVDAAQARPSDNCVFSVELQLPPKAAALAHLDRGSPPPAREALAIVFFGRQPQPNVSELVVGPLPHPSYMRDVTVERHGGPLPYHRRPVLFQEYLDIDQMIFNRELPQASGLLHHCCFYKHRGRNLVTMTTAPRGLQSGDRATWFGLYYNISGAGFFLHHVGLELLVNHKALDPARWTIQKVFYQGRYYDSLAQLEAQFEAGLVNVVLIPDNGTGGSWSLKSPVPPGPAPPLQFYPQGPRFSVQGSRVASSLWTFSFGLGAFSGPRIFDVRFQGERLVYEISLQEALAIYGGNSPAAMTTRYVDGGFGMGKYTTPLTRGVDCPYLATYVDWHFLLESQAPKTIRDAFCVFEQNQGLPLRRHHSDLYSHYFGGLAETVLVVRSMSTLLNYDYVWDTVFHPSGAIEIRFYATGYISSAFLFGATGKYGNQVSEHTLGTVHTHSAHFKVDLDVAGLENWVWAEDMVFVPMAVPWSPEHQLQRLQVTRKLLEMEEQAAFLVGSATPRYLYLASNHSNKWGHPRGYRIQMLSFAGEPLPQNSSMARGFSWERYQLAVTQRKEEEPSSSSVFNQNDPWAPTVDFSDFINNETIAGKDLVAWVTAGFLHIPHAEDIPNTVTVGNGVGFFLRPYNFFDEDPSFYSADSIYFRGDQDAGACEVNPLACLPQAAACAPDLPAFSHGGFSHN
Experimental: This assay is performed at room temperature with purified recombinantly expressed human VAP-1 (SSAO). Enzyme was prepared essentially as described in Ohman et al. (Protein Expression and Purification 46 (2006) 321-331). The enzyme activity is assayed with benzylamine as substrate by measuring either benzaldehyde production, using 14C-labeled substrate, or by utilizing the production of hydrogen peroxide in a horseradish peroxidise (HRP) coupled reaction. Briefly, test compounds are dissolved in dimethyl sulfoxide (DMSO) to a concentration of 10 mM. […]
Hydrogen peroxide detection: In a horseradish peroxidise (HRP) coupled reaction, hydrogen peroxide oxidation of 10-acetyl-3,7-dihydroxyphenoxazine produces resorufin, which is a highly fluorescent compound (Zhout and Panchuk-Voloshina. Analytical Biochemistry 253 (1997) 169-174; Amplex® Red Hydrogen Peroxide/peroxidise Assay kit, Invitrogen A22188). […] Benzylarnine concentration is fixed at a concentration corresponding to the Michaelis constant, determined using standard procedures. Fluorescence intensity is then measured at several time points during 1-2 hours, exciting at 544 nm and reading the emission at 590 nm. […] The inhibition is measured as % decrease of the signal compared to a control without inhibitor (only diluted DMSO). […]

[3] = target: T2, human SSAO (Homo sapiens, UniProt Q16853); conditions: Salter-Cid et al., J Pharmacol Exp Ther. 2005; read-out: human SSAO, IC(50); cited from earlier work
T2 sequence (Q16853 1-763): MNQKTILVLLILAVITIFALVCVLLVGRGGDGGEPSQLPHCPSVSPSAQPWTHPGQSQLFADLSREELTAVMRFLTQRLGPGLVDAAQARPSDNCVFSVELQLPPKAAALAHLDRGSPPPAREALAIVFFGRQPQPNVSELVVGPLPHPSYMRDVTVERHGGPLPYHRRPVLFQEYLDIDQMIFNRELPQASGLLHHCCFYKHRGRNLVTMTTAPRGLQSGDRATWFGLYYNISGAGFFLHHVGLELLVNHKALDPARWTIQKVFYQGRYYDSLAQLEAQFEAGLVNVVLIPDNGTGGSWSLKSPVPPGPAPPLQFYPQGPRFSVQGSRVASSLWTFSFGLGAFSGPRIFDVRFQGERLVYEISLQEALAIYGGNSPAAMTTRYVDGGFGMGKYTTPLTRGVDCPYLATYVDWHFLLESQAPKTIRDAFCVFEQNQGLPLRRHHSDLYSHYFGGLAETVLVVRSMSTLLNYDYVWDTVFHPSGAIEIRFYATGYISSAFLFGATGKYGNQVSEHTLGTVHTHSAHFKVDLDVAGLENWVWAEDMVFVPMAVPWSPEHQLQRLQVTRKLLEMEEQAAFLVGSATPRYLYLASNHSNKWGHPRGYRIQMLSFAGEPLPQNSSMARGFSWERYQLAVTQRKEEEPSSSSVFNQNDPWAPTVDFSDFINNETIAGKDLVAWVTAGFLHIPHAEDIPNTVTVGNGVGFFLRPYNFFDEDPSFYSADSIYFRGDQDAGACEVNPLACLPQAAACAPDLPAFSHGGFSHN

| Structure (SMILES) | inhibition of paw withdrawal (nociceptive threshold, Randall Selitto) [1] | IC50 [2] | IC50 [3] |
| --- | --- | --- | --- |
| CN(Cc1cnc2nc(N)nc(N)c2n1)c1ccc(C(=O)N[C@@H](CCC(=O)O)C(=O)O)cc1 [MTX, methotrexate] | significant inhibition starting at day 18 up to day 28 |  |  |
| CC(C)[C@H]1c2[nH]cnc2CCN1C(=O)O[C@H]1CCOC1 [Compound 1, (3S)-Tetrahydrofuran-3-yl (4S)-4-isopropyl-1,4,6,7-tetrahydro-5H-Imidazo[4,5-c]pyridine-5-carboxylate] |  | 37 nM |  |
| C=C(CNN)c1ccccc1.Cl [LJP1207, N′-(2-phenyl-allyl)-hydrazine hydrochloride] | significant inhibition at day 21, 25 and 28 |  | 17 nM |
